Structures can show the parent of a compound that is named as a salt. Where two headings read alike, the source gives them in different places.
Key:
Mouse SSAO/VAP-1 = biological target: T1, Mouse SSAO/VAP-1 (Mus musculus, UniProt O70423); assay: Inhibition of amine oxidase activity of mouse SSAO/VAP-1 (3T3-L1 adipocytes, Amplex Red); type: biochemical; details: 3T3-L1 adipocyte SSAO, 30 min at 37° C. preincubation, 40 μM benzylamine
T1 construct: Adipocytes were used as an SSAO source either as adherent cells or as a homogenate; endogenous in cells; host or cells: 3T3-L1 murine fibroblasts (ATCC) differentiated into adipocytes
T1 sequence (O70423 1-765): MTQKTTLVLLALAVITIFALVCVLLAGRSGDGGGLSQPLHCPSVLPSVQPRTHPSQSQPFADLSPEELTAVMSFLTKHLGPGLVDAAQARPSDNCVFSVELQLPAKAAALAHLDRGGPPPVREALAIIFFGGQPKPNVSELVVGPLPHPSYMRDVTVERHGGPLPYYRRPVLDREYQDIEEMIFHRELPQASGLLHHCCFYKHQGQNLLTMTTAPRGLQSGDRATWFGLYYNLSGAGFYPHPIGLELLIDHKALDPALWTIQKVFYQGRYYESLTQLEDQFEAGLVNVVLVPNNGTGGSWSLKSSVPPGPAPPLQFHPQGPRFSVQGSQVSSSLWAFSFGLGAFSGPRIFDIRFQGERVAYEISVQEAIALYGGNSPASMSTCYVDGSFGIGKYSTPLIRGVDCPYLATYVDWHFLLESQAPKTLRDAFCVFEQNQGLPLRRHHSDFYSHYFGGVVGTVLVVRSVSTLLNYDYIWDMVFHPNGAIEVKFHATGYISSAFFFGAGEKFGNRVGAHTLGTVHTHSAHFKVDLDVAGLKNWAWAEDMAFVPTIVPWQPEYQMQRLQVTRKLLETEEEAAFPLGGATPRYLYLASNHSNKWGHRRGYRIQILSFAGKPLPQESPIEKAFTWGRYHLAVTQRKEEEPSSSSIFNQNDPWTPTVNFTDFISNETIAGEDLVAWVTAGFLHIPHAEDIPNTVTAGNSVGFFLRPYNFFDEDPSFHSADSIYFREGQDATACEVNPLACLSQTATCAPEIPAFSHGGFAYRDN
From the text: 3T3-L1 Murine fibroblasts were purchased from the American Type Culture Collection (ATCC, Rockville, Md.). Dulbecco's Modified Eagle Medium (DMEM) and fetal calf serum (FCS), antibiotics and Amplex® Red were obtained from Invitrogen (Carlsbad, Calif.). Tissue culture plastics and black clear-bottom 96 well plates were from BD Falcon (Bedford, Mass.). Bicinchoninic acid (BCA) reagent was from Pierce (Rockford, Ill.). All other materials were obtained from Sigma (St. Louis, Mo.).
3T3-L1 Fibroblasts were cultured in DMEM supplemented with 10% heat-inactivated FCS, 2 mM L-glutamine, 100 U/L penicillin and 100 μg/L streptomycin at 37° C. in 5% CO2. For differentiation into adipocytes, fibroblasts were cultured in DMEM with FCS for 1 or 2 days postconfluence, after which the cells were cultured for 3 days in DMEM containing 10% FCS, 350 nM insulin, 0.5 mM 3-isobutyl-1-methylxanthine, 250 nM dexamethasone, and 400 nM biotin and for 3 days in DMEM containing 10% FCS and 350 nM insulin. After differentiation, adipocytes were maintained in DMEM supplemented with 10% FCS. Adipocytes were used for experiments 8 to 11 days after the onset of differentiation, and the medium was renewed 2 or 3 days prior to each experiment. For culturing in black clear-bottom 96-well plates, cells were seeded at a 1:1 cell surface ratio, and differentiation was initiated 4 days postseeding. Cells were used between days 6-12 post-differentiation and between passages 7 and 20. Adipocytes were used as an SSAO source either as adherent cells or as a homogenate.
To prepare homogenate, 10 cm dishes of adipocytes were washed with HES buffer (20 mM HEPES, 1 mM EDTA, 250 mM sucrose, pH 7.4) and scraped in HES buffer containing 10 μg/mL leupeptin, 10 μM pepstatin and 1 mM PMSF. Cells were lysed by passage through a 23 G needle followed by passage through a 27 G needle. The lysate was spun at 500 g for 5 min and fat was removed. Protein concentration of the supernatant was measured using a BCA assay according to the manufacturer's instructions. The homogenate was stored at −80° C. until needed.
(§1) To measure the SSAO activity, adipocyte homogenate (0.5 mg/mL) or adipocytes (adhering cells) containing 0.5 mM pargyline, or purified human SSAO was incubated in 0.1 M sodium phosphate buffer pH 7.4 with varying concentrations of test compounds for 30 min at 37° C. The homogenate was then incubated at 37° C. with 60 μM Amplex® Red, 0.75 U/mL HRP and 40 μM benzylamine (mouse SSAO) or 300 μM benzylamine (human SSAO) and the formation of resorufin was measured (excitation range 530-560 nm and emission at 590 nm) every 10 min in either a Tecan Infinite 200 or a BMG plate reader. The IC50 values were estimated using Graphpad Prism software. The IC50 is an estimation of the concentration of the test compound to inhibit the amine oxidase activity of SSAO/VAP-1 by 50%. The IC50 values of certain invention compounds are included in Table 1.

Human MAO-B = biological target: T2, Human MAO-B (Homo sapiens, UniProt P27338); assay: Inhibition of recombinant MAO-B (Amplex Red); type: biochemical; details: 30 min at 37° C. preincubation, 50 μM benzylamine
T2 sequence (P27338 1-520): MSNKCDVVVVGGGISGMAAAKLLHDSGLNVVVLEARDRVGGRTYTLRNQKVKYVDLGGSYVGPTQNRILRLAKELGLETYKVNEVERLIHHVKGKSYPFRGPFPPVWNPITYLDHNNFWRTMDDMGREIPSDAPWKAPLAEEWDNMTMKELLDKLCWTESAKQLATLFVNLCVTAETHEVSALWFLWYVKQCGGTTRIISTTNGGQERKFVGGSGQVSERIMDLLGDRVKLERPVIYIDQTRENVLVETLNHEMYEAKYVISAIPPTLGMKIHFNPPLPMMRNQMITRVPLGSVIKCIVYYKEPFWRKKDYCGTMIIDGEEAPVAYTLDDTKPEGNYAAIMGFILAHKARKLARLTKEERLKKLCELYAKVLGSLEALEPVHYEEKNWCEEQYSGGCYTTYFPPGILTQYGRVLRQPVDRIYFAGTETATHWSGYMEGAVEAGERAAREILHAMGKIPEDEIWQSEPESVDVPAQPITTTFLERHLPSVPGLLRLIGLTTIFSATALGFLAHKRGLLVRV
Procedure: Recombinant MAO-B was incubated in 0.1 M sodium phosphate buffer pH 7.4 with varying concentration of test compounds for 30 min at 37° C. The homogenate/protein was then incubated at 37° C. with […] Amplex® Red, 0.75 U/ml HRP and 40 μM benzylamine (mouse SSAO), 300 μM benzylamine (human SSAO), 100 μM tyramine (MAO-A) or 50 μM benzylamine (MAO-B) and the formation of resorufin was measured (excitation range 530-560 nm and emission at 590 nm) every 5 min in either a Tecan Infinite 200 or a BMG Fluorostar Optima platereader. IC50 were estimated using Graphpad Prism software.

Human SSAO/VAP-1 = biological target: T3, Human SSAO/VAP-1 (Homo sapiens, UniProt Q16853); assay: Inhibition of amine oxidase activity of purified human SSAO/VAP-1 (Amplex Red); type: biochemical; details: purified human SSAO, 30 min at 37° C. preincubation, 300 μM benzylamine
T3 sequence (Q16853 1-763): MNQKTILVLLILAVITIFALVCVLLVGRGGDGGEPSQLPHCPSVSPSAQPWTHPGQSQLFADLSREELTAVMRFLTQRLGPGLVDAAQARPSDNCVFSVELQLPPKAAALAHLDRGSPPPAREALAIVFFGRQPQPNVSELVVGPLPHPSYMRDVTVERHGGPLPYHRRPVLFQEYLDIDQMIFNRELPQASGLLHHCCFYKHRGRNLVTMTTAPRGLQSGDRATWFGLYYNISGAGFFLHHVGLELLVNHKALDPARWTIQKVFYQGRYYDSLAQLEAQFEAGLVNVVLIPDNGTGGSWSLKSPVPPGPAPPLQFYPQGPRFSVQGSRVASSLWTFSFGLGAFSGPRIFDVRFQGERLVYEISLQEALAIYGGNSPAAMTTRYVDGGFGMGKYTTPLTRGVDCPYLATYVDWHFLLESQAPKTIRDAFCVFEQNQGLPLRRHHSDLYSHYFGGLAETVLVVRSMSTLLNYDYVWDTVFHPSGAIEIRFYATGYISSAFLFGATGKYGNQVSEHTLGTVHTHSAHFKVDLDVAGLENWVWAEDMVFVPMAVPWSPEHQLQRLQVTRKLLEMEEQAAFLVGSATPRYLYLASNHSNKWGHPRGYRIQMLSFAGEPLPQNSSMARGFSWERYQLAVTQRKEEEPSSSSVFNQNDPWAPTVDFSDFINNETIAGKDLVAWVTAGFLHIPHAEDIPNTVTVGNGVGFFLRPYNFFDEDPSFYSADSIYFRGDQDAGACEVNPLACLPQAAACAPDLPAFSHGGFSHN
Procedure: as §1

SSAO/VAP-1 = biological target: T4, SSAO/VAP-1 (Mus musculus, UniProt O70423); assay: In vivo inhibition of SSAO/VAP-1 activity in mouse genital fat; design: species or system BALB/C mice; details: ip
T4 construct: the genital fat was excised and frozen; The tissue was homogenized; from tissue; host or cells: genital fat of BALB/C mice
T4 sequence (O70423 1-765): T1 sequence (O70423 1-765)
Procedure: In vivo inhibition was assessed in mouse genital fat, a tissue with high SSAO/VAP-1 expression. 10 BALB/C mice (5 males and 5 females) were administered 0 mg/kg, 10 mg/kg, 30 mg/kg or 100 mg/kg SSAO/VAP-1 inhibitor by intraperitoneal injection. Two hours after administration the mice were sacrificed and the genital fat was excised and frozen. The tissue was homogenized in 0.01 M sodium phosphate buffer pH 7.4 (10 mL/g) and used to measure SSAO activity using Amplex® Red. ED50 was estimated Using Graphpad Prism software.

[1] = female BALB/C mice, intraperitoneal, genital fat SSAO activity two hours after administration, read-out: Female Mice ED50 [ip]
[2] = male BALB/C mice, intraperitoneal, genital fat SSAO activity two hours after administration, read-out: Male Mice ED50 [ip]
[3] = read-out: Female Mice ED50 [ip]

| SMILES | IC50 (Mouse SSAO/VAP-1) [nM] | IC50 (Human MAO-B) [nM] | IC50 (Human SSAO/VAP-1) [nM] | ED50 (SSAO/VAP-1; [1]) [mg/kg] | ED50 (SSAO/VAP-1; [2]) [mg/kg] | ED50 (SSAO/VAP-1; [3]) [mg/kg] | ED50 (SSAO/VAP-1; read-out: Male Mice ED50 [ip]) [mg/kg] |
| --- | --- | --- | --- | --- | --- | --- | --- |
| NC/C=C(/F)COc1ccc([N+](=O)[O-])cc1 [(E)-3-Fluoro-4-(4-nitrophenoxy)but-2-en-1-amine hydrochloride] | < 10000 | < 1000 | < 1000 |  |  |  |  |
| NC/C=C(\Cl)CCc1ccccc1 [(Z)-3-Chloro-5-phenylpent-2-en-1-amine hydrochloride, reference compound] | < 10000 |  | < 10000 |  |  |  |  |
| CC(C)S(=O)(=O)c1ccc(OC/C(F)=C\CN)cc1.Cl [(E)-3-Fluoro-4-(4-(isopropylsulfonyl)phenoxy)but-2-en-1-amine hydrochloride] |  |  |  | < 150 | < 150 |  |  |
| NC/C=C(/F)COc1ccc(C(=O)NCc2ccccc2)cc1 [(E)-4-(4-Amino-2-fluorobut-2-enyloxy)-N-benzylbenzamide hydrochloride] | < 1000 | < 1000 | < 1000 |  |  |  |  |
| CC(C)N(C(=O)c1ccc(OC/C(F)=C\CN)cc1)C(C)C [(E)-4-(4-Amino-2-fluorobut-2-enyloxy)-N,N-diisopropylbenzamide hydrochloride] | < 100000 | < 100000 | < 1000 |  |  |  |  |
| Cl.NC/C=C(/F)COc1ccc(C(=O)NC2CCCC2)cc1 [(E)-4-(4-Amino-2-fluorobut-2-enyloxy)-N-cyclopentylbenzamide hydrochloride] |  |  |  | < 50 | < 50 |  |  |
| NC/C=C(/F)COc1ccccc1 [(E)-3-fluoro-4-phenoxybut-2-en-1-amine hydrochloride] | < 10000 | < 1000 | < 1000 |  |  |  |  |
| C[C@@H](NC(=O)c1ccc(OC/C(F)=C\CN)cc1)c1ccccc1.Cl [R-(E)-4-(4-Amino-2-fluorobut-2-enyloxy)-N-(1-phenylethyl)benzamide hydrochloride] |  |  |  |  |  | < 150 | < 50 |
| NC/C=C(\Cl)Cc1cc(F)cc(F)c1 [(Z)-3-Chloro-4-(3,5-difluorophenyl)but-2-en-1-amine hydrochloride, reference compound] | < 1000 |  | < 10000 |  |  |  |  |
| NC/C=C(/F)COc1cccc(C(F)(F)F)c1 [(E)-3-Fluoro-4-(3-(trifluoromethyl)phenoxy)but-2-en-1-amine hydrochloride] | < 100000 | < 1000 | < 1000 |  |  |  |  |
| NC/C=C(/F)COc1ccc(S(=O)(=O)N2CCOCC2)cc1 [(E)-3-Fluoro-4-(4-(morpholinosulfonyl)phenoxy)but-2-en-1-amine hydrochloride] | < 10000 | < 10000 | < 1000 |  |  |  |  |
| C[C@H](NC(=O)c1ccc(OC/C(F)=C\CN)cc1)c1ccccc1.Cl [S-(E)-4-(4-Amino-2-fluorobut-2-enyloxy)-N-(1-phenylethyl)benzamide hydrochloride] |  |  |  |  |  | < 50 | < 50 |
| Cl.NC/C=C(/F)COc1ccc(S(=O)(=O)Cc2ccccc2)cc1 [(E)-4-(4-(Benzylsulfonyl)phenoxy)-3-fluorobut-2-en-1-amine hydrochloride] |  |  |  | < 300 | < 50 |  |  |
| NC/C=C(/F)COc1ccc(Cl)cc1Cl [(E)-4-(2,4-Dichlorophenoxy)-3-fluorobut-2-en-1-amine hydrochloride] | < 10000 | < 1000 | < 1000 |  |  |  |  |

Reference: US8426587B2, “Haloallylamine inhibitors of SSAO/VAP-1 and uses therefor” (Pharmaxis Ltd., priority 2007, dated 2013)
